Measurements published in ChEMBL document CHEMBL1139883, “Additional scalarane sesterterpenes from the sponge Phyllospongia papyracea” (J Nat Prod, 2007).
The source made the active and inactive calls. The calls are words filed in the database; no cut-off is given here.

Target: T1, Catenin beta-1 (Homo sapiens) (UniProt P35222)
T1 sequence (whole entry): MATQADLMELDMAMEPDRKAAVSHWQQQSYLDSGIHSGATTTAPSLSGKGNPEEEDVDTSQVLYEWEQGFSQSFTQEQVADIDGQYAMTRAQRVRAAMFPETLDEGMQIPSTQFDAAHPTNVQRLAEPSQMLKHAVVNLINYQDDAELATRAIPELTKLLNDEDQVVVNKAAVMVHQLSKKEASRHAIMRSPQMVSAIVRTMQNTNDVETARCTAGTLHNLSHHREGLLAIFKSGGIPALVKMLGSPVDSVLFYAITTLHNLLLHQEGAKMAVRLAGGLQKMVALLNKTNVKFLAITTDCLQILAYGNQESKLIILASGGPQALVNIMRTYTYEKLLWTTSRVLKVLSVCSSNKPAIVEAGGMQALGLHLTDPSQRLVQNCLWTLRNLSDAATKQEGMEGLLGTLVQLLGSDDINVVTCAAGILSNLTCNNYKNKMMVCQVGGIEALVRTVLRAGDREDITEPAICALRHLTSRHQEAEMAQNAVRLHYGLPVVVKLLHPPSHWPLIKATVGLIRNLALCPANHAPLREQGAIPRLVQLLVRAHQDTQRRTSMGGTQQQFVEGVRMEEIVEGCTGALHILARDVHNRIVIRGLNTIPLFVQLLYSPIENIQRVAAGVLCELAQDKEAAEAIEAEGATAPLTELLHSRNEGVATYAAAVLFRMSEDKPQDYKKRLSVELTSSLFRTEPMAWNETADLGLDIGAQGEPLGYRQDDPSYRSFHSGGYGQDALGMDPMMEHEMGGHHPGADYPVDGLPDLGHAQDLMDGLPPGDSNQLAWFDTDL
Assay: Activity against beta […]/Tcf4 complex by PPI assay

| Activity | Structure (SMILES) |
| --- | --- |
| inactive | CC[C@@]1(C)CCC[C@]2(C)[C@H]3C[C@H](OC(C)=O)[C@]45C[C@@H](O)[C@H]4C(C(C)=O)=CC[C@H]5[C@]3(C)CC[C@@H]12 |
| inactive | CCC(O)CC(=O)O[C@@H]1C[C@H]2[C@]3(C)CC[C@H]4[C@@](C)(CC)CCC[C@]4(C)[C@H]3C[C@H](OC(C)=O)[C@]2(C)[C@@H](C(=O)O)[C@@H]1C(C)=O (some centres not stated) |
| inactive | CC[C@@]1(C)CCC[C@]2(C)[C@H]3C[C@H](OC(C)=O)[C@]4(C)C5=C(C(=O)C[C@H]4[C@]3(C)CC[C@@H]12)C(C)OC5=O (some centres not stated) |
| inactive | CC[C@@]1(C)CCC[C@]2(C)[C@H]3C[C@H](OC(C)=O)[C@]4(C)[C@@H](C(=O)O)C(C(C)=O)=CC[C@H]4[C@]3(C)CC[C@@H]12 |
| inactive | CC[C@@]1(C)CCC[C@]2(C)[C@H]3C[C@H](OC(C)=O)[C@@]4(C)C(=CC(=O)C5=C4C(=O)OC5(C)O)[C@]3(C)CC[C@@H]12 (some centres not stated) |
| inactive | CC[C@@]1(C)CCC[C@]2(C)[C@H]3C[C@H](OC(C)=O)[C@]4(C)[C@@H](O)C(C(C)=O)=CC[C@H]4[C@]3(C)CC[C@@H]12 |
| inactive | CC[C@@]1(C)CCC[C@]2(C)[C@H]3C[C@H](OC(C)=O)[C@]45C[C@H](O)[C@H]4C(C(C)=O)=CC[C@H]5[C@]3(C)CC[C@@H]12 |
